Data reported in PubChem BioAssay (NCI).
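Dose response: 5 concentrations. Exposure: 48 h. Format: 96-well plates. Endpoint: linear interpolation; highest concentration if not reached. The concentration for full growth arrest is given as TGI.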

Tests used:
Assay in all cases: growth of human tumour cells (NCI), 48 h
MALME-3M melanoma = test system: MALME-3M melanoma
COLO 205 colon = test system: COLO 205 colon
RXF 393 renal = test system: RXF 393 renal
UO-31 renal = test system: UO-31 renal
KM12 colon = test system: KM12 colon
SR leukemia = test system: SR leukemia
MOLT-4 leukemia = test system: MOLT-4 leukemia
CCRF-CEM leukemia = test system: CCRF-CEM leukemia
RPMI-8226 leukemia = test system: RPMI-8226 leukemia
CAKI-1 renal = test system: CAKI-1 renal
NCI-H23 lung = test system: NCI-H23 lung
OVCAR-3 ovarian = test system: OVCAR-3 ovarian
HT29 colon = test system: HT29 colon
SK-OV-3 ovarian = test system: SK-OV-3 ovarian
T-47D breast = test system: T-47D breast
ACHN renal = test system: ACHN renal
HCC-2998 colon = test system: HCC-2998 colon
TK-10 renal = test system: TK-10 renal
SW-620 colon = test system: SW-620 colon
NCI-H226 lung = test system: NCI-H226 lung
SNB-19 CNS = test system: SNB-19 CNS
MDA-MB-231 breast = test system: MDA-MB-231 breast
K-562 leukemia = test system: K-562 leukemia
HCT-116 colon = test system: HCT-116 colon
DU-145 prostate = test system: DU-145 prostate
PC-3 prostate = test system: PC-3 prostate
SF-539 CNS = test system: SF-539 CNS
786-0 renal = test system: 786-0 renal
SF-295 CNS = test system: SF-295 CNS
SN12C renal = test system: SN12C renal
U251 CNS = test system: U251 CNS
OVCAR-8 ovarian = test system: OVCAR-8 ovarian
SK-MEL-28 melanoma = test system: SK-MEL-28 melanoma
IGROV1 ovarian = test system: IGROV1 ovarian
M14 melanoma = test system: M14 melanoma
UACC-62 melanoma = test system: UACC-62 melanoma
NCI-H460 lung = test system: NCI-H460 lung
HOP-62 NSCLC = test system: HOP-62 NSCLC
A498 renal = test system: A498 renal
HOP-92 NSCLC = test system: HOP-92 NSCLC
HCT-15 colon = test system: HCT-15 colon
MDA-MB-435 = test system: MDA-MB-435
SNB-75 CNS = test system: SNB-75 CNS
MDA-N = test system: MDA-N
A549 NSCLC = test system: A549 NSCLC
BT-549 breast = test system: BT-549 breast
SF-268 CNS = test system: SF-268 CNS
OVCAR-5 ovarian = test system: OVCAR-5 ovarian
HS 578T breast = test system: HS 578T breast
HL-60(TB) leukemia = test system: HL-60(TB) leukemia
MCF7 breast = test system: MCF7 breast
EKVX NSCLC = test system: EKVX NSCLC
LOX IMVI melanoma = test system: LOX IMVI melanoma
NCI-H522 lung = test system: NCI-H522 lung
OVCAR-4 ovarian = test system: OVCAR-4 ovarian
UACC-257 melanoma = test system: UACC-257 melanoma
SK-MEL-5 melanoma = test system: SK-MEL-5 melanoma
NCI/ADR-RES ovarian = test system: NCI/ADR-RES ovarian
SK-MEL-2 melanoma = test system: SK-MEL-2 melanoma

Measured: TGI

O=C(CC(=O)N(C(=O)c1ccccc1)c1ccc(Cl)cc1)N/N=C\c1cc(N=Nc2ccccc2Cl)ccc1O
26.2 µM: HL-60(TB) leukemia
59.6 µM: HOP-92 NSCLC
36.6 µM: SNB-75 CNS
51.4 µM: CCRF-CEM leukemia
94.2 µM: SNB-19 CNS
85.6 µM: A498 renal
37.8 µM: MOLT-4 leukemia
36 µM: K-562 leukemia
35.8 µM: SR leukemia
61.6 µM: HS 578T breast
not listed: NCI-H522 lung | OVCAR-4 ovarian | UACC-257 melanoma | SK-MEL-5 melanoma | NCI/ADR-RES ovarian | SK-MEL-2 melanoma
> 100 µM: all other assays above

Nc1ccc(C(=O)Nn2c(-c3ccccc3)nc3ccccc3c2=O)cc1
not listed: CAKI-1 renal | HCT-15 colon | NCI/ADR-RES ovarian | SK-MEL-2 melanoma
> 100 µM: all other assays above

Nc1nc(Cl)cc(NCC2(CO)COC2)n1
not listed: MOLT-4 leukemia | SNB-19 CNS | M14 melanoma | HOP-92 NSCLC
> 100 µM: all other assays above

CC(=O)[C@]1(O)Cc2c(O)c3c(c(O)c2C(OC2OC(C)C(O)C(O)C2F)C1)C(=O)c1ccccc1C3=O (stereo partly drawn)
2.88 µM: SK-MEL-2 melanoma
45.9 µM: SK-OV-3 ovarian
2.3 µM: HCC-2998 colon
1.25 µM: K-562 leukemia
2.7 µM: SK-MEL-28 melanoma
0.303 µM: NCI-H23 lung
2.38 µM: UACC-257 melanoma
0.341 µM: NCI-H226 lung
0.68 µM: SK-MEL-5 melanoma
6.83 µM: HCT-116 colon
0.0642 µM: CCRF-CEM leukemia
7.8 µM: T-47D breast
1.89 µM: RXF 393 renal
2.28 µM: NCI-H522 lung | SF-268 CNS
0.0577 µM: MOLT-4 leukemia
0.724 µM: UACC-62 melanoma
0.837 µM: SNB-75 CNS
0.0279 µM: UO-31 renal
1.31 µM: OVCAR-5 ovarian
0.324 µM: SF-295 CNS
11.6 µM: LOX IMVI melanoma
< 0.0303 µM: HL-60(TB) leukemia
7.21 µM: MDA-MB-231 breast
0.629 µM: HOP-62 NSCLC
2.67 µM: MDA-N
71.3 µM: TK-10 renal
1.55 µM: M14 melanoma
1.62 µM: HS 578T breast
3.92 µM: HOP-92 NSCLC
11.2 µM: OVCAR-4 ovarian
6.64 µM: OVCAR-3 ovarian
5.64 µM: KM12 colon
1.48 µM: MALME-3M melanoma
12.4 µM: SN12C renal
3.78 µM: NCI/ADR-RES ovarian
> 45.2 µM: MCF7 breast
14.7 µM: EKVX NSCLC
0.996 µM: U251 CNS
3.47 µM: COLO 205 colon
1.95 µM: MDA-MB-435
2.44 µM: BT-549 breast
24.9 µM: IGROV1 ovarian
45.8 µM: DU-145 prostate
0.398 µM: A498 renal
16.1 µM: OVCAR-8 ovarian
2.36 µM: RPMI-8226 leukemia
0.374 µM: SF-539 CNS
3.3 µM: PC-3 prostate
> 37.1 µM: 786-0 renal
